Reference: patent publication US11007162B2, “Methods of reducing small, dense LDL particles” (CymaBay Therapeutics, Inc., priority 2008, dated 2021)

Columns and labels:
human subjects [1] = assay: Absorption of phytosterols (markers of cholesterol absorption) in human subjects, day 21; type: in vivo; conditions: oral daily dose, day 21, FIG. 11
Method: In another experiment, human subjects received an oral dose of Compound II at day 1 and daily thereafter and the effect of the drug was assessed on day 21. Phytosterols are poorly absorbed from diet, but are absorbed proportionally with dietary cholesterol and thus serve as good markers of cholesterol absorption.

healthy male subjects = assay: Phase I multiple ascending dose study, 21 days; LDL particle size by GGE and AIM; type: in vivo, human; conditions: for predominant LDL particle size / proportion of small LDL particles: 50, 100 and 200 mg
Method: Thirty-six healthy male subjects were treated with the compound of Formula II at 50, 100, and 200 mg for 21 days. To determine the lipoprotein particle sizes in the subjects before and after administration of the compound, gradient-gel electrophoresis (GGE) and Airborne Ion Mobility (AIM) methods were used.
GGE was performed essentially as described in Krauss and Burke, J Lipid Res. 23:97-104 (1982) and La Belle, et al., J. Lipid Res. 38 690-700 (1997) as follows:
LDL particle diameters were determined by nondenaturing 2-14% polyacrylamide gradient gel electrophoresis in 0.09 M Tris/0.08 M borate buffer (pH 8.3), 3 mM EDTA at 8-10° C. Samples (whole plasma) were electrophoresed at 40 V for 15 min, then 80 V for 15 min, and then at 125 V for 24 h to allow all particles to run to their size exclusion limits. Gels were stained for protein with Sudan Black and scanned at 555 nm with a Transidyne RFT densitometer. Particle sizes were calculated from a calibration curve using a high molecular weight reference protyin mixture (Pharmacia Biotech., Piscataway, N.J.), 380 Å latex beads (Duke Scientific Corp., Palo Alto, Calif.) and lipoprotein calibrators that are frozen at −80° C. and included on each gel run. Plasma samples, stored at −80° C. and used as controls for gradient gel analysis procedures, were run in duplicate on each gel. Particle size of LDL peaks in the controls were measured within ±2 Å (coefficient of variation, +1%).
AIM was performed essentially as described in Caulfield, et al., Clin. Chem. 54:1307-1316 (2008), generally as follows:
Serum samples or controls were briefly mixed by vortex mixing, then 5 μl of sample or control was mixed with 20 μl of an albumin removal reagent [7.5 g/L Reactive green 19 dextran (RGD), Sigma-Aldrich; 2.5 g/L dextran sulfate, Sigma-Aldrich; and 0.5 g/L EDTA, Spectrum Chemicals] and incubated on ice for 15 minutes. After incubation, the sample mixture was overlaid on 200 μl deuterium oxide (Medical Isotopes) in a 42.2 ultracentrifuge tube (Beckman Coulter). The samples were ultracentrifuged at 10° C. for 135 min at 223 000 g (42 000 rpm), and then the top 85 μl (i.e., the lipid fraction) of the sample was removed. The samples were diluted 1:800 for HDL analysis using 25 mmol/L ammonium acetate, 0.5 mmol/L ammonium hydroxide, pH 7.4. For LDL analysis, samples were diluted 1:200 with the same diluent containing 5 μg/mL dextran sulfate to help prevent LDL particles from sticking to the capillary surfaces. Final dilutions were made in deep-well 96-well plates and placed in a Leap HTLC Pal autosampler (Eksigent) with the cooled stack maintained at 6° C.
The autosampler was connected to the electrospray generator (Model 3480; TSI) via methyl-deactivated silica capillary (50 μm i.d.; SGE). Flow was introduced by nano-LC pumps (Eksigent) running a mobile phase of 25 mmol/L ammonium acetate, 0.5 mmol/L ammonium hydroxide, pH 7.4. By means of a capillary metal union (Upchurch Scientific), an autosampler injected 10 μl sample at 6 μl/min into a transfer capillary (methyl-deactivated, SGE, 50 μm, 33 cm long). High voltage (2.1 kV) was applied to the metal capillary union located 33 cm upstream of the electrospray unit. The electrospray Taylor cone was monitored visually and amperometrically to ensure stability. After the sample had filled the capillary and reached the electrospray chamber, the flow was decreased to 200 nL/min and the data recording process was started. The gas (containing approximately 5% CO2) flowing into the electrospray chamber was regulated at 1.6 L/min. The electrosprayed particles passed through a particle-charge neutralizing chamber and then entered the differential mobility analyzer (DMA). Se, e.g., U.S. Pat. No. 7,259,018. Scan time was 2 min and covered a particle range of 17.2 to 542.0 Å. […]

overweight subjects = assay: Second clinical study: LDL particle size pattern and blood chemistry in overweight subjects; type: in vivo, human
Method: A second clinical study to determine the effect of the Compound of Formula II on LDL particle size in overweight subjects was performed. Subjects in this study met the following criteria: Non-Diabetic; untreated or diet-treated, with fasting lipids at initial screening and visit 2 (after 4 week run-in): […] Subjects were males with waist circumference greater than 38″ or females with waist circumference greater than 33″. Data was generated in this second study from 181 subjects. […] Of the 28 subjects that remained in the study in the placebo group, there was a net loss of subjects having LDL pattern A.

human subjects [2] = assay: Effect on cholesterol synthesis in human subjects after 21 days; type: in vivo
Method: A series of experiments were performed to determine the effect of Compound II on cholesterol synthesis. Compound II was administered to human subjects and the effect on cholesterol ester, acyl-coenzyme A:cholesterol acyltransferase (ACAT) and Lecithin-cholesterol acyltransferase (LACAT) was determined after 21 days. […] The effect of treatment appeared similar between ACAT- and LCAT-derived cholesterol esters, indicating a reduction in cholesterol substrate.

C57BL/6 mice = assay: Intestinal cholesterol absorption by fecal dual isotope ratio method; type: in vivo
Method: This study was designed to examine the effect of Compound II on intestinal cholesterol absorption in mice using the fecal dual isotope ratio method. Eight-week-old male C57BL/6 mice were fed standard mouse chow (control) with no added cholesterol (Harlan Teklad diet T.8604) ad libitum. Mice were randomized into five groups: 1) control, water gavaged daily; 2) compound II gavaged daily (in water) at a dose of 3 mg/kg; 3) compound II gavaged daily (in water) at a dose of 10 mg/kg; 4) ezetimibe gavaged daily (in corn oil) at a dose of 5 mg/kg; 5) compound II fed daily as diet admix at a dose of approximately 15 mg/kg. Mice were housed individually and monitored daily for food consumption and body weight. Following eight days of feeding/drug administration, (and 1 hour following gavage of drug), nonfasted, unanesthetized animals were bled and plasma was isolated and flash-frozen at −80° C. for shipment and measurement of concentrations of Compound II and its metabolites. The following day (day 9), mice were gavaged with drug or control. One hour later, each mouse was gavaged with MCT oil containing [^14C]cholesterol and [^3H]sitostanol. Mice were housed individually in metabolic cages and ad libitum feeding and daily gavage of each drug was continued. Feces were collected daily from each animal for a period of 4 days. For each individual mouse, the 4-day feces were pooled, dried, saponified, extracted and counted.
Intestinal cholesterol absorption in age- and gender-matched C57BL/6 mice was determined by the fecal dual isotope ratio method. […] See, FIG. 10. […] Statistical analysis between groups was assessed by unpaired Student's t-test. Statistical significance was defined as a two-tailed probability of less than 0.05.

[3] = 21 days, listed as compound of Formula II
[4] = phase I multiple ascending doses samples, FIG. 1
[5] = MBX-8025 50 mg, Week 0 (before treatment)
[6] = MBX-8025 100 mg, Week 0 (before treatment)
[7] = Atorvastatin 20 mg, Week 0 (before treatment)

With `CCOC(COc1ccc(C(F)(F)F)cc1)CSc1ccc(OCC(=O)O)c(C)c1` (centres unmarked) [Compound II] the Stigmasterol (human subjects [1]) was “not significantly affected”, the campesterol (human subjects [1]) was “significantly decreased” and the β-sitosterol (human subjects [1]) was “significantly decreased”. For the same compound, the “shift of LDL subclass pattern” value (healthy male subjects; 50, 100 and 200 mg dosage, day 21 vs day 1, GGE) was “from LDL Pattern B or I to LDL Pattern A”, the “predominant LDL particle size” value (healthy male subjects; 21 days, listed as compound II) was “increased” and the “proportion of small LDL particles” value (healthy male subjects; 21 days, listed as compound II) was “lowered”. The “predominant LDL particle size” value (healthy male subjects; [3]) was “effectively increased”, the “proportion of small LDL particles” value (healthy male subjects; [3]) was “decreasing the amount of smaller LDL particles” and the “predominant LDL particle size” value (healthy male subjects; 21 days, listed as drawing 12) was “effective in improving”. For the same compound, the VLDL particle size (healthy male subjects; 21 days) was “did not affect”, the LDL particle distributions (healthy male subjects; 21 days, by dose) was “did affect LDL particle distributions in dose dependent fashion” and the “Apolipoprotein B” value (healthy male subjects; [4]) was “significantly lowered”. For the same compound, the LDL-cholesterol (healthy male subjects; [4]) was “significantly lowered”, the “LDL pattern results compared with control group treated with Atorvastatin” value (overweight subjects; 50 mg and 100 mg) was “superior” and the “number of subjects having pattern A (in words)” value (overweight subjects; 100 mg) was “increase”. The “number of subjects having pattern B (in words)” value (overweight subjects; 100 mg) was “large decrease”, the “Apo B-100” value (overweight subjects; FIG. 6) was “reduced” and the HDL levels (overweight subjects; FIG. 6) was “increased”. The LDL (overweight subjects; FIG. 6) was “reduced”, the total cholesterol (overweight subjects; FIG. 6) was “reduced” and the triglycerides (overweight subjects; FIG. 6) was “reduced”. For the same compound, the “percentage of individuals having LDL pattern A over time” value (overweight subjects; FIG. 7) was “went up dramatically”, the “percentage of individuals having LDL pattern B over time” value (overweight subjects; FIG. 8) was “went down dramatically” and the “number of subjects having LDL Pattern A” value (overweight subjects; [5]) was 8. For the same compound, the “number of subjects having LDL Pattern B” value (overweight subjects; [5]) was 13, the “number of subjects having LDL Pattern I” value (overweight subjects; [5]) was 7 and the “number of subjects having LDL Pattern A” value (overweight subjects; MBX-8025 50 mg, Week 4) was 24. The “number of subjects having LDL Pattern B” value (overweight subjects; MBX-8025 50 mg, Week 4) was 3, the “number of subjects having LDL Pattern I” value (overweight subjects; MBX-8025 50 mg, Week 4) was 0 and the “number of subjects having LDL Pattern A” value (overweight subjects; MBX-8025 50 mg, Week 8) was 25. For the same compound, the “number of subjects having LDL Pattern B” value (overweight subjects; MBX-8025 50 mg, Week 8) was 2, the “number of subjects having LDL Pattern I” value (overweight subjects; MBX-8025 50 mg, Week 8) was 2 and the “number of subjects having LDL Pattern A” value (overweight subjects; [6]) was 6. The “number of subjects having LDL Pattern B” value (overweight subjects; [6]) was 20, the “number of subjects having LDL Pattern I” value (overweight subjects; [6]) was 7 and the “number of subjects having LDL Pattern A” value (overweight subjects; MBX-8025 100 mg, Week 4) was 25. The “number of subjects having LDL Pattern B” value (overweight subjects; MBX-8025 100 mg, Week 4) was 1, the “number of subjects having LDL Pattern I” value (overweight subjects; MBX-8025 100 mg, Week 4) was 4 and the “number of subjects having LDL Pattern A” value (overweight subjects; MBX-8025 100 mg, Week 8) was 25. The “number of subjects having LDL Pattern B” value (overweight subjects; MBX-8025 100 mg, Week 8) was 2, the “number of subjects having LDL Pattern I” value (overweight subjects; MBX-8025 100 mg, Week 8) was 2 and the “Lanosterol (cholesterol synthesis intermediate) in blood” value (human subjects [2]; FIG. 9) was “decreased in a dose-dependent fashion”. The “desmosterol (cholesterol synthesis intermediate) in blood” value (human subjects [2]; FIG. 9) was “decreased in a dose-dependent fashion”, the “lathosterol (cholesterol synthesis intermediate) in blood” value (human subjects [2]; FIG. 9) was “decreased in a dose-dependent fashion” and the “cholesterol concentrations (ACAT- and LCAT-derived cholesterol esters)” value (human subjects [2]; after 21 days) was “decreased cholesterol concentrations in a dose-dependent fashion”. The “reduction in cholesterol absorption versus control (printed as negative change)” value (C57BL/6 mice; admix to diet, approximate dose 15 mg/kg/d, p<0.0006) was −45%, the “change in cholesterol absorption versus control” value (C57BL/6 mice; gavage, 3 mg/kg/d, no significant change) was −8% and the “reduction in cholesterol absorption versus control” value (C57BL/6 mice; gavage, 10 mg/kg/d, significant) was 29.4%.

With `CC(C)c1c(C(=O)Nc2ccccc2)c(-c2ccccc2)c(-c2ccc(F)cc2)n1CC[C@@H](O)C[C@@H](O)CC(=O)O` [Atorvastatin, reference compound] the “number of subjects having LDL Pattern A” value (overweight subjects; [7]) was 9, the “number of subjects having LDL Pattern B” value (overweight subjects; [7]) was 15 and the “number of subjects having LDL Pattern I” value (overweight subjects; [7]) was 5. For the same compound, the “number of subjects having LDL Pattern A” value (overweight subjects; Atorvastatin 20 mg, Week 4) was 12, the “number of subjects having LDL Pattern B” value (overweight subjects; Atorvastatin 20 mg, Week 4) was 10 and the “number of subjects having LDL Pattern I” value (overweight subjects; Atorvastatin 20 mg, Week 4) was 6. For the same compound, the “number of subjects having LDL Pattern A” value (overweight subjects; Atorvastatin 20 mg, Week 8) was 13, the “number of subjects having LDL Pattern B” value (overweight subjects; Atorvastatin 20 mg, Week 8) was 13 and the “number of subjects having LDL Pattern I” value (overweight subjects; Atorvastatin 20 mg, Week 8) was 3. For the same compound, the HDL levels (overweight subjects; FIG. 6) was “no effect”.

With `O=C1[C@H](CC[C@H](O)c2ccc(F)cc2)[C@@H](c2ccc(O)cc2)N1c1ccc(F)cc1` [ezetimibe, reference compound] the “reduction in cholesterol absorption” value (C57BL/6 mice; gavage in corn oil, 5 mg/kg/d, positive control, p<0.0000005) was 56.4%.
